Source: US20230271956A1, “AMIDE DERIVATIVES” (Merck Patent GmbH, priority 2020, published 2023)
pIC50: −log10 of the molar value.

Tests used:
[1] = biological target: T1, human rec ACSS2 (Homo sapiens, UniProt Q9NR19); test: Biochemical activity ACSS2 assay (AMP-Glo); conditions: human recombinant ACSS2, AMP-Glo, 180 min at 37° C.
T1 construct: myc (C); purchased Origene
Experimental: The biochemical activity assay for ACSS2 is based on the detection of released AMP by AMP-Glo ™ Assay kit (Promega, Madison). The assay is run in three steps: the enzymatic reaction in which human rec ACSS2 activates acetate with ATP and Coenzyme A as cosubstrates to acetyI-coA thereby releasing AMP and the detection reaction of AMP by AMP Glo assay in which after the destruction of the residual ATP with AMP Glo reagent 1 produced AMP is converted to ATP that is measured in a luciferase assay system (detection reagent). The ACSS2 activity correlates with the detected luminescence signal.
The assay was performed in Perkin Elmer 384well white Proxiplates in a total volume of 8 µl.
1 nM (fc) C-term myc tagged ACSS2 (human, recombinant, Origene, Rockville, US) and a mixture of 100 µM (fc) ATP, 100 µM (fc) Coenzyme A and 500 µM (fc) sodium acetate were incubated in a total volume of 5 µl (50 mM Hepes, 1 mM Mg-chloride, 150 mM NaCl, 1 mM DTT, 0.01 % (w/v) BSA, 0.3 % DMSO, pH 7.5) in the absence or presence of the test compound (10 dilution concentrations, start conc 30 µM) for 180 min at 37° C. The reaction was stopped and residual ATP destroyed by the addition of 1 µl AMP Glo reagent solution (Promega, Madison, US). After 1 h incubation at room temperature 2 µl of AMP Glo detection reagent was added and the assay was incubated for 0.75 hr at room temperature. The luminescence signal was measured with an Envision multimode reader (Perkin Elmer LAS Germany GmbH) at 700 nm in luminescence mode. The full value used was the inhibitor-free reaction. The pharmacological zero value was generated by addition of ACSS2 inhibitor (Ac-CoA Synthase Inhibitor - CAS 508186-14-9 -Calbiochem) in a final concentration of 5 µM. The inhibitory values (IC50) were determined using the program Assay Analyzer® from GeneData.

[2] = biological target: T2, ACSS2 (Homo sapiens, UniProt Q9NR19); test: Cellular assay of 14C acetate incorporation into histones (IC50 ACSS2 cellular histone); assay type: cell-based; conditions: HCT-15 cells
T2 construct: endogenous fatty acid synthesis activity in the human HCT-15 cancer cell line; endogenous in cells; host or cells: HCT-15
T2 sequence (Q9NR19 whole entry): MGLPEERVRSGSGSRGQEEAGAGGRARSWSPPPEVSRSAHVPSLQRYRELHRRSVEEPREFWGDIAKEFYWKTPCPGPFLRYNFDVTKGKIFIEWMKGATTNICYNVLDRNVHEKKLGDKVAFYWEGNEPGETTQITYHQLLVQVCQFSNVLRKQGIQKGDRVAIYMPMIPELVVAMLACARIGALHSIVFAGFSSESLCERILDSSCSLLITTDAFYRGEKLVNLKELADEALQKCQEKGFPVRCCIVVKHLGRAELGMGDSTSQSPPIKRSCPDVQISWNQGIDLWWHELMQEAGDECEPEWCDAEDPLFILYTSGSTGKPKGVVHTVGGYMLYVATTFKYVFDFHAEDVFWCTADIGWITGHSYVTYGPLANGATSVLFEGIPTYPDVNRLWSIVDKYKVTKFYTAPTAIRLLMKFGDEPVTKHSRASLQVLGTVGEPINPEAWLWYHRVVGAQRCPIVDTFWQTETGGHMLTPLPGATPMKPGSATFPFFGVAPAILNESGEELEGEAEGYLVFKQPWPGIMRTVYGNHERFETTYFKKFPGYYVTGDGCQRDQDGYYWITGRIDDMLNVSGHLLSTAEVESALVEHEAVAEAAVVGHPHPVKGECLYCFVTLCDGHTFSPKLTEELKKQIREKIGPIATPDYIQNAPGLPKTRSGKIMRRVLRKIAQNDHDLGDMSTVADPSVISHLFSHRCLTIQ
Experimental: This protocol describes a cellular assay capable to quantify endogenous histone acetylation activity in the human HCT-15 cancer cell line following the incorporation of extracellularly administered radiolabeled ^14C acetate with a scintillation based read out on acid extracted histones.
HCT-15 cells are trypsinized, washed and suspended in DMEM culture medium supplemented with penicillin/streptomycin (100 U/mL), sodium pyruvate (1 mM), and 10% FBS
Compounds serial dilutions are prepared in 96-well V-bottom microplate from 10 mM stock solutions in DMSO. From these dilutions 0.5 µl are transferred to a fresh plate including pure DMSO as negative control. The dilutions are prepared such, that the final concentration in the assay is 1/400 of the concentration in the serial dilution. The final DMSO concentration in the assay is 0.25 %.
The cell suspension is seeded at densities of 2x10^5 cells per 170 µl into individual wells of a 96 well plate each containing 0.5 µl aliquots of compound serial dilutions and are kept for 1h in a cell incubator. To each well 30 µL of a mixture containing 0.5 mCi/mL of ^14C-acetate with full medium are added. Then, the wells are incubated for 3 hrs in the cell incubator.
Further steps of the procedure should be conducted on ice or instrumentations precooled to 4° C. Cells are sedimented in the 96-well V-bottom microplate by centrifugation (Eppendorf 5804 R) at 1200 rpm for 5 min. The supernatant is removed and the cells are washed twice with 200µL of PBS-NaB (5 mM sodium butyrate) buffer by iterative resuspension and centrifugation. Finally, the cells are resuspended in 50 µL of TEB (PBS-NaB + 0.5 % Triton X-100) and left on ice for 10 minutes. After centrifugation at 2300 rpm for 10 minutes at 4° C. the supernatant is removed, the remaining pellet is suspended in 50 µL of 0.2 M HCl and incubated over night at 4° C. After incubation the well plate is shaken for 2 minutes in a MTP plate shaker set to 1200 rpm and then centrifuged at 3700 rpm for 10 mins. The lysate is carefully aspirated (~43 µL) and transferred into a white MTP plate (Greiner bio-one 65509). 90 µL of Ultima Gold XR scintillation cocktail are added and the plates are sealed with a transparent cover tape before mixing vigorously using plate shaker set to 1200 rpm. Radioactivity from ^14C incorporation in the wells is measured as CPM count in a MicroBeta Trilux luminescence counter.

T1 sequence (Q9NR19 whole entry): as above

**Q.** Which results are given for CCn1cnc(NC(=O)c2cc3c(nc2OC)nc(C(O)(c2ccccc2)c2ccc(OC(F)F)cc2)n3CC)n1 (racemic) [Compound 86, 2-{[4-(difluoromethoxy)phenyl](hydroxy)phenylmethyl}-1-ethyl-N-(1-ethyl-1H-1,2,4-triazol-3-yl)-5-methoxy-1H-imidazo[4,5-b]pyridine-6-carboxamide]?
**A.** pIC50 [1]: 8.00 to 9.00; pIC50 [2]: 8.00 to 9.00

**Q.** What does the source list for CCn1cc(NC(=O)c2cc3c(nc2Cl)nc(C(O)(c2ccccc2)c2ccc(OC(F)F)cc2F)n3CC)cn1 (single isomer, unassigned) [Compound 74]?
**A.** pIC50 [1]: 8.00 to 9.00; pIC50 [2]: 8.00 to 9.00

**Q.** CCn1cnc(NC(=O)c2cc3c(nc2OC)nc(C(O)(c2ccccc2C)c2ccccc2C)n3CC)n1 [Compound 52, 1-ethyl-N-(1-ethyl-1H-1,2,4-triazol-3-yl)-2-[hydroxybis(2-methylphenyl)methyl]-5-methoxy-1H-imidazo[4,5-b]pyridine-6-carboxamide] was tested. Which pIC50 [1] did it give?
**A.** 7.00 to 8.00

**Q.** What about the pIC50 [2] of the same molecule?
**A.** 7.00 to 8.00

**Q.** With CCn1cnc(NC(=O)c2cc3c(nc2OC)nc(C(O)(c2ccc(OC(F)F)cc2)c2ccccc2F)n3CC)n1 (racemic) [Compound 87, 2-{[4-(difluoromethoxy)phenyl](2-fluorophenyl)hydroxymethyl}-1-ethyl-N-(1-ethyl-1H-1,2,4-triazol-3-yl)-5-methoxy-1H-imidazo[4,5-b]pyridine-6-carboxamide] as the molecule, how does the pIC50 [1] read?
**A.** 8.00 to 9.00

**Q.** What about the pIC50 [2] of the same molecule?
**A.** 8.00 to 9.00

**Q.** CCn1cnc(NC(=O)c2cc3c(nc2Cl)nc(C(O)(c2ccccc2)c2ccccc2)n3CC)n1 [Compound 99, 5-chloro-1-ethyl-N-(1-ethyl-1H-1,2,4-triazol-3-yl)-2-(hydroxydiphenylmethyl)-1H-imidazo[4,5-b]pyridine-6-carboxamide] was tested. Which pIC50 [1] did it give?
**A.** 8.00 to 9.00

**Q.** And the pIC50 [2]?
**A.** 9.00 to 11.00

**Q.** How did the pIC50 [1] turn out when CCn1cnc(NC(=O)c2cnc3nc(C(O)(c4ccccc4F)c4ccccc4F)n(CC)c3c2)n1 [Compound 110, 2-[bis(2-fluorophenyl)(hydroxy)methyl]-1-ethyl-N-(1-ethyl-1H-1,2,4-triazol-3-yl)-1H-imidazo[4,5-b]pyridine-6-carboxamide] was run?
**A.** 8.00 to 9.00

**Q.** What about the pIC50 [2] of the same molecule?
**A.** 8.00 to 9.00

**Q.** CCn1cc(NC(=O)c2cnc3nc(C(O)(c4ccccc4)c4ccccc4)n(CC)c3c2)cn1 [Compound 113, 1-ethyl-N-(1-ethyl-1H-pyrazol-4-yl)-2-(hydroxydiphenylmethyl)-1H-imidazo[4,5-b]pyridine-6-carboxamide] was tested. Which pIC50 [1] did it give?
**A.** 7.00 to 8.00

**Q.** What about the pIC50 [2] of the same molecule?
**A.** 7.00 to 8.00

**Q.** With CCn1cc(NC(=O)c2cc3c(nc2OC)nc(C(O)(c2ccc(OC(F)F)cc2)c2ccccc2F)n3CC)cn1 (racemic) [Compound 88, 2-{[4-(difluoromethoxy)phenyl](2-fluorophenyl)hydroxymethyl}-1-ethyl-N-(1-ethyl-1H-pyrazol-4-yl)-5-methoxy-1H-imidazo[4,5-b]pyridine-6-carboxamide] as the molecule, how does the pIC50 [1] read?
**A.** 7.00 to 8.00

**Q.** What about the pIC50 [2] of the same molecule?
**A.** 7.00 to 8.00

**Q.** With CCn1cnc(NC(=O)c2cc3c(nc2OC)nc(C(O)(c2ccccc2)c2ncccn2)n3CC)n1 (racemic) [Compound 49, 1-ethyl-N-(1-ethyl-1H-1,2,4-triazol-3-yl)-2-[hydroxy(phenyl)(pyrimidin-2-yl)methyl]-5-methoxy-1H-imidazo[4,5-b]pyridine-6-carboxamide] as the molecule, how does the pIC50 [1] read?
**A.** 7.00 to 8.00

**Q.** And the pIC50 [2]?
**A.** 8.00 to 9.00

**Q.** What does the source list for CCn1cnc(NC(=O)c2cc3c(nc2OC)nc(C(O)(c2ccccc2)c2ccc(OC(F)F)cc2F)n3CC)n1 (racemic) [Compound 78, 2-{[4-(difluoromethoxy)-2-fluorophenyl](hydroxy)phenylmethyl}-1-ethyl-N-(1-ethyl-1H-1,2,4-triazol-3-yl)-5-methoxy-1H-imidazo[4,5-b]pyridine-6-carboxamide]?
**A.** pIC50 [1]: 8.00 to 9.00; pIC50 [2]: 9.00 to 11.00

**Q.** With CCn1c(C(O)(c2ccccc2)c2ccccc2)nc2nc(Cl)c(C(=O)Nc3cnn(CCOC)c3)cc21 [Compound 67, 5-chloro-1-ethyl-2-(hydroxydiphenylmethyl)-N-[1-(2-methoxyethyl)-1H-pyrazol-4-yl]-1H-imidazo[4,5-b]pyridine-6-carboxamide] as the molecule, how does the pIC50 [1] read?
**A.** 7.00 to 8.00

**Q.** And the pIC50 [2]?
**A.** 7.00 to 8.00

**Q.** With CCn1c(C(O)(c2ccccc2)c2ccccc2)nc2nc(OC)c(C(=O)Nc3cnn(CCOC)c3)cc21 [Compound 70, 1-ethyl-2-(hydroxydiphenylmethyl)-5-methoxy-N-[1-(2-methoxyethyl)-1H-pyrazol-4-yl]-1H-imidazo[4,5-b]pyridine-6-carboxamide] as the molecule, how does the pIC50 [1] read?
**A.** 7.00 to 8.00

**Q.** And the pIC50 [2]?
**A.** 7.00 to 8.00

**Q.** With CCn1cc(NC(=O)c2cc3c(nc2Cl)nc(C(O)(c2ccccc2)c2ccc(OC(F)F)cc2)n3CC)cn1 (racemic) [Compound 84, 5-chloro-2-{[4-(difluoromethoxy)phenyl](hydroxy)phenylmethyl}-1-ethyl-N-(1-ethyl-1H-pyrazol-4-yl)-1H-imidazo[4,5-b]pyridine-6-carboxamide] as the molecule, how does the pIC50 [1] read?
**A.** 7.00 to 8.00

**Q.** And the pIC50 [2]?
**A.** 7.00 to 8.00

**Q.** CCn1cnc(NC(=O)c2cc3c(nc2OC)nc(C(O)(c2ccccc2)c2ccncn2)n3CC)n1 (racemic) [Compound 42, 1-ethyl-N-(1-ethyl-1H-1,2,4-triazol-3-yl)-2-[hydroxy(phenyl)(pyrimidin-4-yl)methyl]-5-methoxy-1H-imidazo[4,5-b]pyridine-6-carboxamide] was tested. Which pIC50 [1] did it give?
**A.** 7.00 to 8.00

**Q.** And the pIC50 [2]?
**A.** 8.00 to 9.00

**Q.** With CCn1cc(NC(=O)c2cc3c(nc2Cl)nc(C(O)(c2ccc(OC(F)F)cc2)c2ccccc2F)n3CC)cn1 (racemic) [Compound 85, 5-chloro-2-{[4-(difluoromethoxy)phenyl](2-fluorophenyl)hydroxymethyl}-1-ethyl-N-(1-ethyl-1H-pyrazol-4-yl)-1H-imidazo[4,5-b]pyridine-6-carboxamide] as the molecule, how does the pIC50 [1] read?
**A.** 7.00 to 8.00

**Q.** What about the pIC50 [2] of the same molecule?
**A.** 7.00 to 8.00

**Q.** How did the pIC50 [1] turn out when CCn1cnc(NC(=O)c2cc3c(nc2OC)nc(C(O)(c2ccccc2)c2cnn(C)c2)n3CC)n1 (racemic) [Compound 48, 1-ethyl-N-(1-ethyl-1H-1,2,4-triazol-3-yl)-2-[hydroxy(1-methyl-1H-pyrazol-4-yl)phenylmethyl]-5-methoxy-1H-imidazo[4,5-b]pyridine-6-carboxamide] was run?
**A.** 5.00 to 7.00

**Q.** What about the pIC50 [2] of the same molecule?
**A.** 5.00 to 7.00

**Q.** CCn1cnc(NC(=O)c2cc3c(nc2OC)nc(C(O)(c2ccccc2)c2ccccc2)n3CCOC)n1 [Compound 41, N-(1-ethyl-1H-1,2,4-triazol-3-yl)-2-(hydroxydiphenylmethyl)-5-methoxy-1-(2-methoxyethyl)-1H-imidazo[4,5-b]pyridine-6-carboxamide] was tested. Which pIC50 [1] did it give?
**A.** 8.00 to 9.00

**Q.** What about the pIC50 [2] of the same molecule?
**A.** 8.00 to 9.00

**Q.** With CCn1cnc(NC(=O)c2cc3c(nc2Cl)nc(C(O)(c2ccccc2)c2ccccc2)n3CC)c1 [Compound 82, 5-chloro-1-ethyl-N-(1-ethyl-1H-imidazol-4-yl)-2-(hydroxydiphenylmethyl)-1H-imidazo[4,5-b]pyridine-6-carboxamide] as the molecule, how does the pIC50 [1] read?
**A.** 8.00 to 9.00

**Q.** What about the pIC50 [2] of the same molecule?
**A.** 9.00 to 11.00

**Q.** With CCn1cnc(NC(=O)c2cc3c(nc2C)nc(C(O)(c2ccccc2F)c2ccc(OC(F)F)cc2F)n3CC)n1 (single isomer, unassigned) [Compound 96] as the molecule, how does the pIC50 [1] read?
**A.** 8.00 to 9.00

**Q.** What about the pIC50 [2] of the same molecule?
**A.** 7.00 to 8.00
